PMC7922932, “Molecular Dissection of Escherichia coli CpdB: Roles of the N Domain in Catalysis and Phosphate Inhibition, and of the C Domain in Substrate Specificity and Adenosine Inhibition” (International Journal of Molecular Sciences, 2021)
Several values for one entry are separate records, joined by “and”; a condition that tells them apart may be missing. Equal entries are not always repeated. Where two headings read alike, the source gives them in different places.

Key:
Mature CpdB [1] = target: T1, Mature CpdB (Escherichia coli, UniProt P08331); experiment: biochemical; format: biochemical; design: A structural model of mature CpdB (aa 20–647) was built; GST (N, cleaved yes); made in house; host or cells: E. coli BL21; conditions: mature CpdB; for IC50: 750 µM bis-4-NPP as the substrate, single illustrative experiments, read-out: IC50; for Ki: substrate bis-4-NPP, global fit, mixed partial inhibition (Figure 5), values without SD are single experiments, read-out: Inhibition constant (Ki)
T1 sequence (P08331 20-647): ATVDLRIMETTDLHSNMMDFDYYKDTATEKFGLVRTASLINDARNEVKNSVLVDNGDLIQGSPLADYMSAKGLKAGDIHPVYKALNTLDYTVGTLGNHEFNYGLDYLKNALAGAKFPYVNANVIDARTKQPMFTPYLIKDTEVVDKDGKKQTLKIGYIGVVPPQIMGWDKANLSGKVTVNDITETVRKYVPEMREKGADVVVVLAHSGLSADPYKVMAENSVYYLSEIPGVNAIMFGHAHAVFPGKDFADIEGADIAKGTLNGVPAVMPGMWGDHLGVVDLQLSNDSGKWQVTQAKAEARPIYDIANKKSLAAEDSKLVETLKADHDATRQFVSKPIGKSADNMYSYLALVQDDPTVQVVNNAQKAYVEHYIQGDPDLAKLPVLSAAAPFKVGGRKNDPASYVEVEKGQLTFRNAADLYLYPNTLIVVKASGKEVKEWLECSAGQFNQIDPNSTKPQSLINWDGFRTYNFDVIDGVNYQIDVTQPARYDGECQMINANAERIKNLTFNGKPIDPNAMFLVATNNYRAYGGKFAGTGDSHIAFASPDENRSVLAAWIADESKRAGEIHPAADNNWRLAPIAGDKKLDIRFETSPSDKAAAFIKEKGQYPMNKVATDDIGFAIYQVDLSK
Experimental: (§1) Reaction mixtures of 100 µL contained, besides the needed amount of enzyme (i.e., 0.02–0.05 µg/mL of mature CpdB, 2 µg/mL of a CpdB point mutant, or 0.2 µg/mL of CpdB_Ndom), 50 mM Tris [Tris(hydroxymethyl)aminomethane]-HCl pH 7.5 (adjusted at 37 °C), 2 mM MnCl2, 0.1 mg/mL bovine serum albumin, and the indicated concentrations of bis-4-NPP and the compound tested as inhibitor. Incubations performed at 37 °C were stopped by addition of 0.5 mL of 200 mM Tris, pH 8.9, 5 mM EDTA (ethylenediaminetetraacetate), immediately followed by A405 measurement (ε = 18.1 mM^−1 cm^−1). This termination procedure was used instead of the addition of a high NaOH concentration, to avoid the known formation of brown precipitates of air-oxidized Mn^2+ hydroxide. On occasions, when a higher sensitivity was needed, reaction mixtures of 500 µL were implemented and termination was performed with 0.1 mL 1M Tris, pH 8.9, 30 mM EDTA.

[2] = target: T2, CpdB_Ndom (N-terminal domain of CpdB) (Escherichia coli, UniProt P08331, D305N/I97V/M87I); format: biochemical; conditions: for K M / k cat / k cat /K M: CpdB_Ndom, substance is the substrate, mean ± SD of three experiments; for Activity of CpdB_Ndom on substrate (hydrolytic rate): fixed 750 µM substrate concentration
T2 construct: GST (N, cleaved yes); made in house; host or cells: E. coli BL21
T2 sequence (P08331 20-354 M87I/I97V/D305N): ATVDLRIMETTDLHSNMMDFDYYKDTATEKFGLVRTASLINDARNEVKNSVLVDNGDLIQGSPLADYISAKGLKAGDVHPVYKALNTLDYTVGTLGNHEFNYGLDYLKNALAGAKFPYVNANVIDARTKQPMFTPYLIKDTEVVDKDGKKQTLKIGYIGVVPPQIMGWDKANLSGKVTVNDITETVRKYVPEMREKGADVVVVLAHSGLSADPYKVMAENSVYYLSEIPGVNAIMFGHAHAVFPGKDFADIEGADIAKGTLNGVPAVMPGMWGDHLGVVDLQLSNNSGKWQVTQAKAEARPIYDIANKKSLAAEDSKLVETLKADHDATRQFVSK
Experimental: With all the detectably hydrolyzed substrates, saturation kinetics was studied and parameters kcat and KM were determined from Michaelis-Menten plots (Table 1).
The same assay was used with 2′,3′- or 3′,5′-cyclic nucleotides, CDP-choline and bis-4-NPP except that an excess of alkaline phosphatase was included in the reaction mixture as auxiliary enzyme.
Datasets obtained with different substrates in the absence of inhibitors were used to derive kcat and KM values by adjusting the Michaelis-Menten equation to the experimental points by non-linear regression.

His^117Ala-CpdB = target: T3, His^117Ala-CpdB (Escherichia coli, UniProt P08331, D305N/H117A/I514V/I97V/M87I/N471D/S472N); format: biochemical; conditions: for Catalytic efficiency (kcat/KM) lower than wild-type mature CpdB: His^117Ala-CpdB versus wild-type mature CpdB, same substrate; for K M / k cat / k cat /K M: His^117Ala-CpdB, substance is the substrate
T3 construct: A structural model of mature CpdB (aa 20–647) was built; GST (N, cleaved yes); made in house; host or cells: E. coli BL21
T3 sequence (P08331 20-647 M87I/I97V/H117A/D305N/N471D/S472N/I514V): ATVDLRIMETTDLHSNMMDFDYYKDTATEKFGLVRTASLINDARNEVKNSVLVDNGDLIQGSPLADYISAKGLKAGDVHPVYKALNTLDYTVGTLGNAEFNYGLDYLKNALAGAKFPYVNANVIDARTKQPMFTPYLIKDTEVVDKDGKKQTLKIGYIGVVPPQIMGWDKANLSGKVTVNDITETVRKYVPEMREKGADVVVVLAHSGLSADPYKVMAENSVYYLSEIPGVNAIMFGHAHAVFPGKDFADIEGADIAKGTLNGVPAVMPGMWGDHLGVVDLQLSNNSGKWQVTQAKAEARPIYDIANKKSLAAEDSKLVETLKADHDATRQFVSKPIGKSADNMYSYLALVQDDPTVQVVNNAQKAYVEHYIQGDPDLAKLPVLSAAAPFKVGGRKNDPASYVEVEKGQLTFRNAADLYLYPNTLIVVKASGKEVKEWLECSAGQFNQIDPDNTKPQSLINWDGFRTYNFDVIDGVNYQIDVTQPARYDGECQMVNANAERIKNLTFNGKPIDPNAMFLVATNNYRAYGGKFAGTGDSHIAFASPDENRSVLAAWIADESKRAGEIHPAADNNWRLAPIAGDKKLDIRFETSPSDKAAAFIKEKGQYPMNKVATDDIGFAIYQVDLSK
Text: (§2) The role of the possible catalytic and substrate-binding sites was additionally tested by the preparation of two point mutants of the mature CpdB protein. On the one hand, the mutation His^117Ala modified the histidine residue conserved in the N domain (Figure 1b) with respect to UshA, where it has been proposed to be part of the catalytic core structure and to act as a general base that facilitates the nucleophilic attack by deprotonating a water molecule, and to participate in the stabilization of the transition state. […] On the other hand, mutation Tyr^544Ala modified one of the aromatic residues of CpdB which are conserved in the C domain with respect to the UshA phenylalanine residues that form a stacked sandwich with the adenine ring of the substrate.

Tyr^544Ala-CpdB [3] = target: T4, Tyr^544Ala-CpdB (Escherichia coli, UniProt P08331, D305N/I514V/I97V/M87I/N471D/S472N/Y544A); format: biochemical; conditions: Tyr^544Ala-CpdB; substance is the substrate
T4 construct: A structural model of mature CpdB (aa 20–647) was built; GST (N, cleaved yes); made in house; host or cells: E. coli BL21
T4 sequence (P08331 20-647 M87I/I97V/D305N/N471D/S472N/I514V/Y544A): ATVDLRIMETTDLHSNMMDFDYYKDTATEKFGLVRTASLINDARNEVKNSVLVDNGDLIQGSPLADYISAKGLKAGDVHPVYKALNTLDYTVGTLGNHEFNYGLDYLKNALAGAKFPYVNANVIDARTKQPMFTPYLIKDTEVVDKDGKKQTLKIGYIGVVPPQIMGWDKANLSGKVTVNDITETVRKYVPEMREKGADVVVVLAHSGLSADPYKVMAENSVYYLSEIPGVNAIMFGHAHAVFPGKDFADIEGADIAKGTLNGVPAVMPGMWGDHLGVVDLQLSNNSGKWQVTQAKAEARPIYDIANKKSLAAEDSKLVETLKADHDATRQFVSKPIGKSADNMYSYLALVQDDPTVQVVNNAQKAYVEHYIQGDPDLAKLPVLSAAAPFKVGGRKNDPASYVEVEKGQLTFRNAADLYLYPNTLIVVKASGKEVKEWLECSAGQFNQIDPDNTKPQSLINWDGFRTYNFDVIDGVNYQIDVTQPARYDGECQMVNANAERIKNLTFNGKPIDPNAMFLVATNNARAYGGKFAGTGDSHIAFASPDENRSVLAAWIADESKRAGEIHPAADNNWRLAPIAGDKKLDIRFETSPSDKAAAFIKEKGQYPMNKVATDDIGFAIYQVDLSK
Text: as §2

Tyr^544Ala-CpdB [4] = format: biochemical, Escherichia coli; conditions: Tyr^544Ala-CpdB versus wild-type mature CpdB
Text: as §2

Mature CpdB [5] = target: T1, Mature CpdB; design: A structural model of mature CpdB (aa 20–647) was built; GST (N, cleaved yes); made in house; host or cells: E. coli BL21; conditions: substance is the substrate; cited from earlier work
CpdB_Ndom [6] = target: T5, CpdB_Ndom (Escherichia coli, UniProt P08331, D305N/I97V/M87I); experiment: biochemical; conditions: CpdB_Ndom; substrate bis-4-NPP; global fit, complete competitive inhibition (Figure 7); read-out: Inhibition constant (Ki)
T5 construct: GST (N, cleaved yes); made in house; host or cells: E. coli BL21
T5 sequence (P08331 20-354 M87I/I97V/D305N): as the sequence (P08331 20-354 M87I/I97V/D305N) above
Experimental: Substrate saturation experiments were run in the absence and the presence of one of these inhibitors at fixed concentrations (Figure 7).
as §1

CpdB_Ndom [7] = target: T5, CpdB_Ndom; experiment: Products of the hydrolysis of cyclic (di)nucleotides by CpdB_Ndom (HPLC); format: biochemical; conditions: 2′,3′-cAMP at 500 µM
Text: (§3) The procedures and detailed conditions to measure the initial rates of phosphohydrolytic reactions were as earlier described [4]. […] The same assay was used with 2′,3′- or 3′,5′-cyclic nucleotides, CDP-choline and bis-4-NPP except that an excess of alkaline phosphatase was included in the reaction mixture as auxiliary enzyme.

CpdB_Ndom [8] = target: T5, CpdB_Ndom; format: biochemical; conditions: CpdB_Ndom; for IC50: 750 µM bis-4-NPP as the substrate, single illustrative experiments; for Ki: substrate bis-4-NPP, estimated from inhibitor dose-response curves (Figure 6), read-out: Inhibition constant (Ki)
Mature CpdB [9] = target: T1, Mature CpdB; conditions: for Ki: read-out: Inhibition constant (Ki), mature CpdB, substrate 3′-AMP, global fit, mixed partial inhibition (Figure 5)
Text: In this approach, inhibitors were used as probes for the relevance of those enzyme sites, irrespective of the physiological character and concentrations of the compounds used.
as §3
The procedures followed to derive kinetic parameters kcat, KM and Ki from initial rate vs. substrate concentration datasets, either in the presence or the absence of inhibitor, were as described elsewhere [49]. Datasets obtained with different substrates in the absence of inhibitors were used to derive kcat and KM values by adjusting the Michaelis-Menten equation to the experimental points by non-linear regression. […] Each one of these equations was simultaneously adjusted (global fit) by nonlinear regression to the three saturation curves of each inhibition experiment, using the Solver function of Microsoft Excel. During the adjustments, Vmax, KM and Ki were left to fluctuate. […] In each set of experiments, the type of inhibition that gave the best fit was used as the model to estimate Ki values.

Row | SMILES | IC50 (Mature CpdB [1]) [µM] | Ki (Mature CpdB [1]) [µM] | K M [2] [µM] | k cat [2] [s⁻¹] | k cat /K M [2] | K M (Mature CpdB [5]) [µM] | k cat (Mature CpdB [5]) [s⁻¹] | k cat /K M (catalytic efficiency) (Mature CpdB [5]) | IC50 (CpdB_Ndom [8]) [µM] | also measured
1 | Nc1ncnc2c1ncn2[C@@H]1O[C@H](COP(=O)(O)OP(=O)(O)O)[C@@H](O)[C@H]1O [ADP] | 1100 | 60 |  |  |  |  |  |  |  | 
2 | O=[N+]([O-])c1ccc(OP(=O)(O)Oc2ccc([N+](=O)[O-])cc2)cc1 [bis-4-NPP, bis-4-nitrophenylphosphate] |  |  | 1300 ± 80 | 164 ± 14 | 130,000 ± 7000 M^−1 s^−1 | 96 | 340 | 3.6 × 10^6 M^−1 s^−1 and 3,600,000 M^−1 s^−1 |  | Catalytic efficiency (kcat/KM) lower than wild-type mature CpdB (His^117Ala-CpdB): 60 fold; K M (His^117Ala-CpdB): 440 ± 90 µM; k cat (His^117Ala-CpdB): 26 ± 3 s⁻¹; k cat /K M (His^117Ala-CpdB): 60,000 ± 7000 M^−1 s^−1; K M (Tyr^544Ala-CpdB [3]): 430 ± 30 µM; k cat (Tyr^544Ala-CpdB [3]): 130 ± 34 s⁻¹; k cat /K M (Tyr^544Ala-CpdB [3]): 300,000 ± 100,000 M^−1 s^−1; KM increase by the Tyr^544Ala mutation (Tyr^544Ala-CpdB [4]): five-fold
3 | Nc1ncnc2c1ncn2[C@@H]1O[C@H](CO)[C@H]2OP(=O)(O)O[C@H]21 [2′,3′-cAMP] | 56 | 5 ± 0.4 | 390 ± 170 | 73 ± 32 | 190,000 ± 13,000 M^−1 s^−1 | 27 | 190 | 7,300,000 M^−1 s^−1 | 840 | Catalytic efficiency (kcat/KM) lower than wild-type mature CpdB (His^117Ala-CpdB): 5000 fold; K M (His^117Ala-CpdB): 126 ± 7 µM; k cat (His^117Ala-CpdB): 0.18 ± 0.02 s⁻¹; k cat /K M (His^117Ala-CpdB): 1500 ± 230 M⁻¹ s⁻¹; K M (Tyr^544Ala-CpdB [3]): 1600 ± 550 µM; k cat (Tyr^544Ala-CpdB [3]): 190 ± 60 s⁻¹; k cat /K M (Tyr^544Ala-CpdB [3]): 140,000 ± 73,000 M^−1 s^−1; KM increase by the Tyr^544Ala mutation (Tyr^544Ala-CpdB [4]): 60 fold; Ki (CpdB_Ndom [6]): 460 ± 50 µM; 2′-AMP as product of hydrolysis (CpdB_Ndom [7]): 15%; 3′-AMP as product of hydrolysis (CpdB_Ndom [7]): 85%
4 | O=c1ccn([C@@H]2O[C@H](CO)[C@H]3OP(=O)(O)O[C@H]32)c(=O)[nH]1 [2′,3′-cUMP] |  |  | 630 ± 170 | 155 ± 32 | 250,000 ± 50,000 M^−1 s^−1 | 62 | 260 | 4,200,000 M^−1 s^−1 |  | 
5 | Nc1ncnc2c1ncn2[C@@H]1O[C@@H]2COP(=O)(O)O[C@H]3[C@@H](O)[C@H](n4cnc5c(N)ncnc54)O[C@@H]3COP(=O)(O)O[C@H]2[C@H]1O [c-di-AMP, 3′,5′-cyclic diadenosine monophosphate] |  |  | 3400 ± 2200 | 0.012 ± 0.007 | 3.5 ± 0.1 M⁻¹ s⁻¹ | 15 | 0.40 | 29,000 M^−1 s^−1 |  | 
6 | Nc1ncnc2c1ncn2[C@@H]1O[C@H](COP(=O)(O)OP(=O)(O)OP(=O)(O)O)[C@@H](O)[C@H]1O [ATP] | 720 | 113 ± 19 |  |  |  |  |  |  | 8700 | Ki (CpdB_Ndom [8]): 5.7 mM
7 | Nc1nc2c(ncn2[C@@H]2O[C@H](CO)[C@H]3OP(=O)(O)O[C@H]32)c(=O)[nH]1 [2′,3′-cGMP] |  |  | 570 ± 160 | 58 ± 16 | 100,000 ± 13,000 M^−1 s^−1 | 25 | 84 | 3,500,000 M^−1 s^−1 |  | 
8 | Nc1ncnc2c1ncn2[C@@H]1O[C@H](CO)[C@@H](O)[C@H]1OP(=O)(O)O [2′-AMP] | 100 | 8.8 ± 2 |  |  |  |  |  |  | 920 | Activity of CpdB_Ndom on substrate (hydrolytic rate) [2]: absence of detectable activity; IC50 (Mature CpdB [9]): 320 µM; Ki (Mature CpdB [9]): 7.1 ± 3.2 µM; Ki (CpdB_Ndom [8]): 0.6 mM
9 | Nc1ncnc2c1ncn2[C@@H]1O[C@H](COP(=O)(O)O[C@H]2[C@@H](O)[C@H](n3cnc4c(N)ncnc43)O[C@@H]2COP(=O)(O)O)[C@@H](O)[C@H]1O [pApA, 5′-phosphoadenylyl-3′→5′-adenosine] |  |  | 230 ± 40 | 0.0004 ± 0.0001 | 1.8 ± 0.2 M⁻¹ s⁻¹ | 0.6 | 1.30 | 2,300,000 M^−1 s^−1 |  | Stronger loss of catalytic efficiency than on c-di-AMP caused by the deletion of the C domain ([2]; CpdB_Ndom versus mature CpdB): 100 fold
10 | Nc1ccn([C@@H]2O[C@H](CO)[C@H]3OP(=O)(O)O[C@H]32)c(=O)n1 [2′,3′-cCMP] |  |  | 180 ± 50 | 33 ± 5 | 200,000 ± 80,000 M^−1 s^−1 | 12 | 100 | 8,500,000 M^−1 s^−1 |  | 
11 | C[N+](C)(C)CCOP(=O)(O)OP(=O)([O-])OC[C@H]1O[C@@H](n2ccc(N)nc2=O)[C@H](O)[C@@H]1O [CDP-choline] |  |  | 2900 ± 1700 | 5.7 ± 3.5 | 1950 ± 130 M⁻¹ s⁻¹ | 219 | 0.51 | 2300 M⁻¹ s⁻¹ |  | 
12 | Nc1ncnc2c1ncn2[C@@H]1O[C@H](COP(=O)(O)O)[C@@H](O)[C@H]1O [5′-AMP] | 110 | 14 |  |  |  |  |  |  | 560 | Activity of CpdB_Ndom on substrate (hydrolytic rate) [2]: absence of detectable activity; Ki (CpdB_Ndom [6]): 370 ± 50 µM; IC50 (Mature CpdB [9]): 900 µM; Ki (Mature CpdB [9]): 20 ± 8 µM
13 | Nc1nc2c(ncn2[C@@H]2O[C@@H]3COP(=O)(O)O[C@H]4[C@@H](O)[C@H](n5cnc6c(=O)[nH]c(N)nc65)O[C@@H]4COP(=O)(O)O[C@H]3[C@H]2O)c(=O)[nH]1 [c-di-GMP, 3′,5′-cyclic diguanosine monophosphate] |  |  | 250 ± 30 | 0.0003 ± 0.0001 | 1.2 ± 0.4 M⁻¹ s⁻¹ | 6 | 0.07 | 13,000 M^−1 s^−1 |  | 
14 | Nc1ncnc2c1ncn2[C@@H]1O[C@@H]2COP(=O)(O)O[C@H]2[C@H]1O [3′,5′-cAMP] |  |  | 6900 ± 2600 |  |  | 4600 |  |  |  | 
15 | Nc1ncnc2c1ncn2[C@@H]1O[C@H](CO)[C@@H](OP(=O)(O)O)[C@H]1O [3′-AMP] | 54 | 3.6 ± 0.2 | 880 ± 250 | 0.004 ± 0.0002 | 5 M⁻¹ s⁻¹ and 5.2 ± 1.0 M⁻¹ s⁻¹ | 14 | 176 |  | 4100 | Stronger loss of catalytic efficiency than on 2′,3′-cAMP caused by the deletion of the C domain ([2]; CpdB_Ndom versus mature CpdB): 10^5 fold; Activity of CpdB_Ndom on substrate (hydrolytic rate) [2]: almost complete loss of activities; Activity of His^117Ala-CpdB on substrate (His^117Ala-CpdB): essentially inactive; K M (Tyr^544Ala-CpdB [3]): 850 ± 110 µM; k cat (Tyr^544Ala-CpdB [3]): 160 ± 37 s⁻¹; KM increase by the Tyr^544Ala mutation (Tyr^544Ala-CpdB [4]): 60 fold; Ki (CpdB_Ndom [6]): 3300 ± 550 µM
